Laboratory results published in patent US20090023784A1, “USE OF DEFERIPRONE AND METHODS TO TREAT AND/OR PREVENT FRIEDREICH ATAXIA RESULTING FROM INTRACELLULAR MISHANDLING OF IRON” (priority 2006, published 2009).
Entries after “also recorded” stand apart in the source; their conditions may differ.

Tested on: patients with Friedreich ataxia
Assay: Phase I-II open pilot trial: ICARS, Perdue Pegboard and parents' observations (patients kept on idebenone)
Assay type: in vivo, human
Conditions: for Perdue pegboard: number of nails inserted
From the text: Ten adolescents (four males, six females aged 14 to 23 yrs) with a diagnosis of Friedreich ataxia, confirmed by detection of a trinucleotide-repeat expansion in the first intron of the frataxin gene, were studied. Patients received deferiprone (Ferriprox™, Apotex Inc., Toronto, Canada) orally, in two doses for 1-5 months. Three patients were included, sequentially, for a minimum period of two months at each dose. Patient enrollment was staggered by two-weeks to enable monitoring of response. In the absence of toxicity, and with evidence of efficacy in any of the first 3 patients, a second group of 3 patients would be included at the same dose for a total duration of 6 months. If there was an absence of both efficacy and toxicity, the second group of three patients would be administered a higher dose. If toxicity developed, the current dose would be suspended and the trial resumed with the next group of patients at a lower dose. The patients were on idebenone (10 mg/kg/day, in three doses) for at least two years prior to inclusion and were kept on the drug at the same dose for the duration of the trial. MRI examinations were done at inclusion and at 1, 2, 4 and 6 months. The protocol was promoted by Assistance Publique-Hopitaux de Paris and approved by the local ethical committee and registered at the National Health Authority (AFSSAPS) and at the International Protocol Registration System (www.clinicaltrials.gov). A written informed consent was obtained from patients and parents.
The International Cooperative Ataxia Rating Score (ICARS) was used to assess the symptoms of ataxia before and after 1-5 months (Cano et al. International cooperative ataxia rating scale (ICARS): Appropriate for studies of Friedreich's ataxia? Mov Disord 2005; 20:1585-91). This scale has four subscales: posture and gait disturbance, kinetic functions, speech disorders and oculomotor disorders. Subscale scores are summed to give a total score ranging from 0 to 100. High scores indicated worse ataxia. The Perdue Pegboard test, which assesses speed of performance, delicate movements and manipulative dexterity, was included in the course of the study. This test assesses the ability of the participant to insert as many nails as possible into preset holes, linearly dug in a wooden board in a limited space of time (20 seconds with the two hands, separately and together). The tests were administered by the same investigator. Patients were monitored for neutropenia, agranulocytosis, musculoskeletal pains and zinc deficiency and had weekly blood counts, plasma iron, serum ferritin and transferrin concentration measurements, as well as assessments of renal and liver function.

[1] = patient eight, DFP 20 mg/kg, 4 mth, after trial
[2] = patient eight, DFP 20 mg/kg, 4 mth, prior to trial
[3] = patient five, DFP 30 mg/kg, 1 mth, after trial
[4] = patient five, DFP 30 mg/kg, 1 mth, prior to trial
[5] = patient four, DFP 20 mg/kg, 2 mth, after trial
[6] = patient four, DFP 20 mg/kg, 2 mth, prior to trial
[7] = patient one, DFP 20 mg/kg, 5 mth, after trial
[8] = patient one, DFP 20 mg/kg, 5 mth, prior to trial
[9] = patient six, DFP 30 mg/kg, 1 mth, after trial
[10] = patient six, DFP 30 mg/kg, 1 mth, prior to trial
[11] = patient three, DFP 20 mg/kg, 2 mth, after trial
[12] = patient three, DFP 20 mg/kg, 2 mth, prior to trial
[13] = patient two, DFP 20 mg/kg, 3 mth, after trial
[14] = patient two, DFP 20 mg/kg, 3 mth, prior to trial

Cc1c(O)c(=O)ccn1C [Deferiprone, 3-hydroxy-1,2-dimethylpyridin-4-one]
time to disappearance of constipation, incontinence and some subjective signs of peripheral neuropathy (20 mg/kg/day oral): 1-2 months | neurological condition noted by parents and uninformed relatives (20 mg/kg/day oral, within a few weeks, all treated patients): unexpected neurological improvement | changes of the ICARS scores (20 mg/kg/day, short period of the trial): mild changes of the ICARS scores | Perdue Pegboard test: speed of performances and dexterity (30 mg/kg/day oral, before and 1-2 months after onset): improvement of speed of performances and dexterity | Kinetic function (/29) [1]: 7 | Oculomotor disorder (/6) [1]: 2 | Posture and gait disturbance: 7 items (/34) [1]: 9 | Posture and gait disturbance: gait speed [1]: 1 | Posture and gait disturbance: spread feet [1]: 3 | Posture and gait disturbance: standing eyes open [1]: 1 | Posture and gait disturbance: walking [1]: 2 | Speech disorder (/8) [1]: 2 | Total ICARS (/100) [1]: 20 | Observation (patient eight, DFP 20 mg/kg, 4 mth, listed as DFP): no more incontinence, improved gait and balance, warming; also recorded: up of feet | Kinetic function (/29) [2]: 7 | Oculomotor disorder (/6) [2]: 2 | Posture and gait disturbance: 7 items (/34) [2]: 12 | Posture and gait disturbance: gait speed [2]: 1 | Posture and gait disturbance: spread feet [2]: 3 | Posture and gait disturbance: standing eyes open [2]: 2 | Posture and gait disturbance: walking [2]: 3 | Speech disorder (/8) [2]: 2 | Total ICARS (/100) [2]: 23 | Kinetic function (/29) [3]: 8 | Oculomotor disorder (/6) [3]: 2 | Posture and gait disturbance: 7 items (/34) [3]: 8 | Posture and gait disturbance: gait speed [3]: 2 | Posture and gait disturbance: spread feet [3]: 0 | Posture and gait disturbance: standing eyes open [3]: 1 | Posture and gait disturbance: walking [3]: 2 | Speech disorder (/8) [3]: 2 | Total ICARS (/100) [3]: 20 | Observation (patient five, DFP 30 mg/kg, 1 mth, listed as DFP): no more constipation, incontinence and bending, improved; also recorded: balance and gait | Kinetic function (/29) [4]: 8 | Oculomotor disorder (/6) [4]: 2 | Posture and gait disturbance: 7 items (/34) [4]: 11 | Posture and gait disturbance: gait speed [4]: 2 | Posture and gait disturbance: spread feet [4]: 1 | Posture and gait disturbance: standing eyes open [4]: 2 | Posture and gait disturbance: walking [4]: 2 | Speech disorder (/8) [4]: 2 | Total ICARS (/100) [4]: 23 | Kinetic function (/29) [5]: 12 | Oculomotor disorder (/6) [5]: 0 | Posture and gait disturbance: 7 items (/34) [5]: 13 | Posture and gait disturbance: gait speed [5]: 1 | Posture and gait disturbance: spread feet [5]: 2 | Posture and gait disturbance: standing eyes open [5]: 1 | Posture and gait disturbance: walking [5]: 3 | Speech disorder (/8) [5]: 2 | Total ICARS (/100) [5]: 27 | Perdue pegboard [5]: 29 | Perdue pegboard [6]: 37 | Kinetic function (/29) [6]: 13 | Oculomotor disorder (/6) [6]: 0 | Posture and gait disturbance: 7 items (/34) [6]: 16 | Posture and gait disturbance: gait speed [6]: 1 | Posture and gait disturbance: spread feet [6]: 2 | Posture and gait disturbance: standing eyes open [6]: 3 | Posture and gait disturbance: walking [6]: 3 | Speech disorder (/8) [6]: 2 | Total ICARS (/100) [6]: 31 | Kinetic function (/29) [7]: 7 | Oculomotor disorder (/6) [7]: 2 | Posture and gait disturbance: 7 items (/34) [7]: 27 | Posture and gait disturbance: gait speed [7]: 3 | Posture and gait disturbance: spread feet [7]: 2 | Posture and gait disturbance: standing eyes open [7]: 4 | Posture and gait disturbance: walking [7]: 7 | Speech disorder (/8) [7]: 0 | Total ICARS (/100) [7]: 37 | Observation (patient one, DFP 20 mg/kg, 5 mth, listed as DFP): improved gait, writing, delicate movements, can move them; also recorded: toes, feels their feet, warming up of feet | Kinetic function (/29) [8]: 8 | Oculomotor disorder (/6) [8]: 2 | Posture and gait disturbance: 7 items (/34) [8]: 28 | Posture and gait disturbance: gait speed [8]: 3 | Posture and gait disturbance: spread feet [8]: 3 | Posture and gait disturbance: standing eyes open [8]: 4 | Posture and gait disturbance: walking [8]: 7 | Speech disorder (/8) [8]: 1 | Total ICARS (/100) [8]: 39 | Observation (patient seven, DFP 20 mg/kg, 5 mth, listed as DFP): improved gait, writing, delicate movements, can move them; also recorded: toes, feels their feet, warming up of feet | Observation (patient six, DFP 30 mg/kg, 1 mth): improved gait and standing, no more constipation | Kinetic function (/29) [9]: 9 | Oculomotor disorder (/6) [9]: 0 | Posture and gait disturbance: 7 items (/34) [9]: 17 | Posture and gait disturbance: gait speed [9]: 1 | Posture and gait disturbance: spread feet [9]: 2 | Posture and gait disturbance: standing eyes open [9]: 2 | Posture and gait disturbance: walking [9]: 7 | Speech disorder (/8) [9]: 0 | Total ICARS (/100) [9]: 26 | Perdue pegboard [9]: 39 | Perdue pegboard [10]: 52 | Kinetic function (/29) [10]: 9 | Oculomotor disorder (/6) [10]: 0 | Posture and gait disturbance: 7 items (/34) [10]: 20 | Posture and gait disturbance: gait speed [10]: 1 | Posture and gait disturbance: spread feet [10]: 2 | Posture and gait disturbance: standing eyes open [10]: 3 | Posture and gait disturbance: walking [10]: 7 | Speech disorder (/8) [10]: 0 | Total ICARS (/100) [10]: 29 | Kinetic function (/29) [11]: 11 | Oculomotor disorder (/6) [11]: 0 | Posture and gait disturbance: 7 items (/34) [11]: 16 | Posture and gait disturbance: gait speed [11]: 2 | Posture and gait disturbance: spread feet [11]: 3 | Posture and gait disturbance: standing eyes open [11]: 4 | Posture and gait disturbance: walking [11]: 7 | Speech disorder (/8) [11]: 2 | Total ICARS (/100) [11]: 29 | Perdue pegboard [11]: 44 | Perdue pegboard [12]: 37 | Kinetic function (/29) [12]: 11 | Oculomotor disorder (/6) [12]: 0 | Posture and gait disturbance: 7 items (/34) [12]: 17 | Posture and gait disturbance: gait speed [12]: 2 | Posture and gait disturbance: spread feet [12]: 3 | Posture and gait disturbance: standing eyes open [12]: 5 | Posture and gait disturbance: walking [12]: 7 | Speech disorder (/8) [12]: 3 | Total ICARS (/100) [12]: 31 | Observation (patient two, DFP 20 mg/kg, 3 mth): no more fatigue, improved delicate movements | Kinetic function (/29) [13]: 21 | Oculomotor disorder (/6) [13]: 2 | Posture and gait disturbance: 7 items (/34) [13]: 32 | Posture and gait disturbance: gait speed [13]: 4 | Posture and gait disturbance: spread feet [13]: 4 | Posture and gait disturbance: standing eyes open [13]: 6 | Posture and gait disturbance: walking [13]: 7 | Speech disorder (/8) [13]: 4 | Total ICARS (/100) [13]: 59 | Kinetic function (/29) [14]: 21 | Oculomotor disorder (/6) [14]: 3 | Posture and gait disturbance: 7 items (/34) [14]: 33 | Posture and gait disturbance: gait speed [14]: 4 | Posture and gait disturbance: spread feet [14]: 4 | Posture and gait disturbance: standing eyes open [14]: 6 | Posture and gait disturbance: walking [14]: 7 | Speech disorder (/8) [14]: 4 | Total ICARS (/100) [14]: 61
